Data reported in patent publication US9669028B2, “Substituted 5-(pyrazin-2-yl)-1H-pyrazolo [3, 4-B] pyridine and pyrazolo [3, 4-B] pyridine derivatives as protein kinase inhibitors” (Arrien Pharmaceuticals LLC, priority 2011, dated 2017).
Values joined by “and” are separate entries in the source; they are usually repeats but may differ in a detail not shown here. Equal values may be shown once.

Tests used:
[1] = test system: MPTP-injected C57 black mice; assay: MPTP mouse model, intravenous pre-treatment; assay type: in vivo; details: 5 mg/kg i.v.
Method: 24 C57 black mice (C57/bl6, 6-8 week old, and 25-30 g) were purchased from Charles River Laboratories, Ohio. […] Prior to treatment animals were pre-trained on rotarod for at least 3 minutes every day for three successive days. Test compound (5 mg/kg) was administered intravenously to group C animals, 24 h prior to MPTP-injection and continued daily for additional 11 days. MPTP was dissolved in PBS and injected intraperitoneally (i.p.) at doses of 25 mg/kg, once daily for 5 days to group B and C animals. Group A animals were injected with saline (i.p.) to be used as controls. Urine and Faeces were collected on Day 8, behavioural studies were performed on Day 9 (4-days post-MPTP). On day 12 (7 days post-MPTP), 4 animals/group were sacrificed, different brains regions including striatum and substantia nigra were dissected. Left striatum were used for neurochemical analysis. Other 4 animals/group were perfused and used for TH immunohistological studies.

[2] = BBB post-treatment results, concentration in mice brains; assay type: in vivo, mouse; details: pooled regions
Method: 32 C57 black mice (C57/bl6, 6-8 week old, 25-30 g) were purchased from Charles River Laboratories, Ohio. […] All animals were housed in Laboratory of Animal Resources vivarium at Iowa State University under standard conditions: constant temperature (22±1° C.), humidity (relative, 30%), and a 12-h light/dark cycle. Mice were allowed free access to food and water. Use of the animals and protocol procedures were approved and supervised by the Committee on Animal Care at Iowa State University (Ames, Iowa). Test compounds were dissolved in PBS for this study. Prior to treatment animals were pre-trained on rotarod for at least 3 minutes every day for three successive days. Group A animals were injected with saline (i.p.) to be used as controls. MPTP was dissolved in PBS and injected intraperitoneally (i.p.) at doses of 25 mg/kg, once daily for 5 days to group B, C and D animals. On day 4, prior to 4th MPTP injection, group C animals received test compounds (30 mg/kg, oral) daily for eight days. Similarly, on day 4, prior to 4th MPTP injection, group D animals received test compounds (5 mg/kg, i.v) daily for eight days. On day 9 (Post-test compounds administration) or day 12 (7 days post-MPTP), 4 animals/group were sacrificed, different brain regions including striatum and substantia nigra were dissected. Left striatum were used for neurochemical analysis. […]

[3] = test system: MPTP-injected C57 black mice; assay: MPTP mouse model, post-treatment study; assay type: in vivo; details: post-administration, oral and i.v routes
Method: 32 C57 black mice (C57/bl6, 6-8 week old, 25-30 g) were purchased from Charles River Laboratories, Ohio. […] All animals were housed in Laboratory of Animal Resources vivarium at Iowa State University under standard conditions: constant temperature (22±1° C.), humidity (relative, 30%), and a 12-h light/dark cycle. Mice were allowed free access to food and water. Use of the animals and protocol procedures were approved and supervised by the Committee on Animal Care at Iowa State University (Ames, Iowa). Test compounds were dissolved in PBS for this study. Prior to treatment animals were pre-trained on rotarod for at least 3 minutes every day for three successive days. Group A animals were injected with saline (i.p.) to be used as controls. MPTP was dissolved in PBS and injected intraperitoneally (i.p.) at doses of 25 mg/kg, once daily for 5 days to group B, C and D animals. On day 4, prior to 4th MPTP injection, group C animals received test compounds (30 mg/kg, oral) daily for eight days. Similarly, on day 4, prior to 4th MPTP injection, group D animals received test compounds (5 mg/kg, i.v) daily for eight days. On day 9 (Post-test compounds administration) or day 12 (7 days post-MPTP), 4 animals/group were sacrificed, different brain regions including striatum and substantia nigra were dissected. Left striatum were used for neurochemical analysis. Other 4 animals/group were perfused and used for TH immunohistological studies.

in vivo = details: male, Sprague Dawley, rat
Source text: To investigate the pharmacokinetic profiles of test compound following intravenous bolus administration and oral gavage in male Sprague Dawley rats.

[4] = test system: Rat hepatoma (H4IIE) cell line; assay: In vitro toxicology, general cytotoxicity; assay type: cell-based; details: rat, 24 h
Method: Cells were seeded into 96-well plates and cultured in medium containing 20% bovine serum. […] General cytotoxicity was evaluated by monitoring membrane integrity (MBR, cell supernatant), cell mass (PI) and mitochondrial function (cellular ATP levels). Rotenone was included as a positive control because it produces measurable effects in all three assays. DMSO at 0.5% in medium was included as a negative control. Three wells per exposure concentration were used in each assay. Results are summarized in Table 8 and are expressed as percent of control, with control values set at 100%. […] Test compounds 13 and 13 HCl were rank-ordered from most to least toxic based on individual membrane integrity and ATP responses as well as resultant TC50 values.
Test compounds 13 and 13 HCl were rank-ordered from highest to lowest probability of producing toxicity based first on membrane toxicity, then on ATP, and finally on cell mass (PI). It is important to note that within a given grouping compounds may be classified as to their primary effect being either cytotoxic, cytostatic, or reducing mitochondrial function. In general, compound responses above 80% of vehicle control are considered to be low-to-no effect, moderates generally rank 80% to 50% of vehicle control, and those compounds that cross the 50% mark are considered to have higher probability of toxicity.

[5] = test system: MPTP-injected C57 black mice; assay: MPTP mouse model of Parkinson's disease, oral pre-treatment; assay type: in vivo
[6] = orally administered, pre-treatment

Question: Which “protection against MPTP-induced TH neuronal loss in the substantia nigra and in the striatum” value [1] does the source give for `Cc1n[nH]c2ncc(-c3cncc(NC4CCN(C)CC4)n3)cc12.Cl` [13 HCl, 6-(3-methyl-1H-pyrazolo[3,4-b]pyridin-5-yl)-N-(1-methylpiperidin-4-yl)pyrazin-2-amine hydrochloride] here?
Answer: Its value is “Protect Against MPTP-Induced TH Neuronal Loss”.

Question: And the solubility (physchem)?
Answer: The solubility was 50 µM.

Question: And the “Calc. Conc. of test compound 13 HCl in Mice Brains” value ([2]; individual subjects, hydrochloride)?
Answer: The value was 2.92 ng/g and 1.36 ng/g and 2.32 ng/g and 3.09 ng/g and 3.79 ng/g and 2.74 ng/g and 3.03 ng/g and 2.72 ng/g.

Question: What about the “Calc. Conc. of test compound 13 HCl in Mice Brains, Mean” value ([2]; mean of subjects) of the same molecule?
Answer: The value was 2.75 ng/g.

Question: And the “protection against MPTP-induced histological deficits” value [3]?
Answer: The value was “significantly protected”.

Question: And the “protection against MPTP-induced motor-deficits” value [3]?
Answer: Its value is “significantly protected”.

Question: And the “protection against MPTP-induced neurochemical deficits” value [3]?
Answer: Its value is “not against neurochemical deficits”.

Question: What about the AUC(0-t) (in vivo; iv, 5 mg/kg) of the same molecule?
Answer: The AUC(0-t) was 1020 ng·h/mL.

Question: And the Vd (in vivo; iv, 5 mg/kg)?
Answer: Its Vd is 15.2 L/kg.

Question: And the clearance (in vivo; iv, 5 mg/kg)?
Answer: The clearance was 123 mL/min/kg.

Question: What about the half-life (in vivo; iv, 5 mg/kg) of the same molecule?
Answer: The half-life was 2.26 h.

Question: And the AUC(0-t) (in vivo; po, 30 mg/kg)?
Answer: The AUC(0-t) was 1040 ng·h/mL.

Question: What about the Cmax (in vivo; po, 30 mg/kg) of the same molecule?
Answer: The Cmax was 133 ng/mL.

Question: And the F (in vivo; po, 30 mg/kg)?
Answer: Its F is 24%.

Question: What about the Tmax (in vivo; po, 30 mg/kg) of the same molecule?
Answer: The Tmax was 6.7 h.

Question: What about the “ATP TC50” value [4] of the same molecule?
Answer: The value was greater than 50 µM.

Question: And the “Cell Mass TC50” value [4]?
Answer: Its value is greater than 50 µM.

Question: What about the “Mem Tox TC50” value [4] of the same molecule?
Answer: The value was greater than 50 µM.

Question: What about the “ATP % Control” value ([4]; 5 μM) of the same molecule?
Answer: Its value is 93%.

Question: What about the “Cell Mass % Control” value ([4]; 5 μM) of the same molecule?
Answer: The value was 89%.

Question: And the “Mem Tox % Control” value ([4]; 5 μM)?
Answer: Its value is 93%.

Question: And the “ATP % Control” value ([4]; 10 μM)?
Answer: Its value is 91%.

Question: And the “Cell Mass % Control” value ([4]; 10 μM)?
Answer: Its value is 81%.

Question: And the “Mem Tox % Control” value ([4]; 10 μM)?
Answer: Its value is 91%.

Question: What about the “ATP % Control” value ([4]; 50 μM) of the same molecule?
Answer: The value was 78%.

Question: And the “Cell Mass % Control” value ([4]; 50 μM)?
Answer: The value was 62%.

Question: And the “Mem Tox % Control” value ([4]; 50 μM)?
Answer: The value was 90%.

Question: And the “protection against MPTP-induced TH cell loss and dopaminergic degeneration in substantia nigra and striatum” value ([5]; 10 mg/kg and 30 mg/kg oral)?
Answer: Its value is “dose-dependent protection”.

Question: And the “locomotor activities in MPTP-injected mice” value [5, 6]?
Answer: The value was “Improve Locomotor Activities”.

Question: What about the “striatal dopamine levels in MPTP treated mice” value [5, 6] of the same molecule?
Answer: Its value is “Restore Striatal Dopamine Levels”.
